Source: paper PMC7481406, “Bifunctional supramolecular nanofiber inhibits atherosclerosis by enhancing plaque stability and anti-inflammation in apoE^-/- mice” (Theranostics, 2020)
Where a SMILES comes first, the peptide text is derived from it. [ ]: non-standard residue; d: D form. The star is where a group is joined. Naproxen = COc1ccc2cc([C@H](C)C(=O)*)ccc2c1; Acetyl(2-naphthyl) = O=C(Cc1ccc2ccccc2c1)*

Assays:
[1] = Body weight and serum lipid profile; type: in vivo, mouse; conditions: for HDL-C / LDL-C / TG (triglyceride) / Total-C (serum total cholesterol): serum
Excerpt: (§1) All animal studies were approved by the Animal Ethics Committee of Nankai University and followed the Tianjin Committee of Use and Care of Laboratory Animals. Male apoE^‑/‑ mice (~22 g bodyweight, ~8 weeks old) were purchased from the Beijing Vital River Laboratory Animal Technology Co., Ltd, which were used to set up the atherosclerotic model, as previously described. ApoE^-/- mice were randomly assigned into six groups (15 per group) and fed with HFD (21% fat plus 0.5% cholesterol; Mediscience, Ltd, Jiangsu, China; Cat No. MD12015A) for 16 weeks. […] At the end of the experiment, all mice were euthanatized by an overdose of 2,2,2-tribromoethanol (640 mg/kg, IP injection), followed by collection of aortas, blood, and peritoneal macrophages. Serum was prepared to determine levels of TNF-α, IL-1β and IL-6 by ELISA kits purchased from ABclonal, Inc. (Wuhan, China). The en face aortas were used to prepare aortic root cross sections followed by determination of en face and sinus lesions with Oil Red O staining. All the images were obtained with a microscope and quantified lesion areas in en face aorta by a computer-assisted image analysis protocol (Photoshop CS6). Necrotic core area, fibrous cap area, expression of MOMA-2, CD68, and α-SMA protein in lesion were determined by H&E and immunofluorescent staining with aortic root cross sections.

[2] = target: recombinant human Insulin-like Growth Factor-I Receptor (rhIGF-1R) (Homo sapiens, UniProt P08069); assay: Microscale thermophoresis binding to rhIGF-1R; conditions: for dissociated constant (KD) with rhIGF-1R: microscale thermophoresis, NT-647 labelled rhIGF-1R, PBS with 0.05% Tween 20 pH 7.4, compound 0.054 nM to 2 μM
Excerpt: (§2) The transparency of the prepared hydrogel in the visible light range of 380 nm-780 nm is detected by UV-Vis spectroscopy (Lambda 35 UV/Vis Spectrometer, Perkin-Elmer). […] Therefore, we conducted microscale thermophoresis experiments to determine their binding affinity to recombinant human Insulin-like Growth Factor-I Receptor (rhIGF-1R).
rhIGF-1R was labeled with the fluorescent dye NT-647 using a Monolith NT™ Protein Labelling Kit (cysteine-reactive) (NanoTemper Technologies, Germany). PBS buffer containing 0.05% Tween 20 (pH 7.4) was used as the assay buffer. For the interaction experiments of fluorescent proteins with Compound 1, 2, 3or 4, the concentration of labeled proteins were kept constant, while the concentration of Compound 1, 2, 3or 4 varied from 0.054 nM to 2 μM. Then, the solution of fluorescent proteins was mixed with solutions containing different concentrations of Compound 1, 2, 3or 4 at 1:1 volume ratio. After a short incubation time, the samples were loaded into MST NT.115 standard glass capillaries and the analysis was performed using the Monolith NT.115 system (NanoTemper Technologies, Germany). The KD value was calculated using the NanoTemper software package.

peritoneal macrophages = assay: Macrophage polarization and LPS-induced inflammation in vitro; type: cell-based, mouse
Method: (§3) Human aortic smooth muscle cells (HASMCs) were cultured in a completed DMEM F12 medium (10% fetal bovine serum, 50 μg/mL penicillin, and 50 μg/mL streptomycin). Peritoneal macrophages were cultured in complete RPMI1640 medium (10% fetal bovine serum, 50 μg/mL penicillin, 50 μg/mL streptomycin and 2 mM glutamine). HASMCs or peritoneal macrophages were seeded on a 6-well plate at the density of 3×10^5 cells per well before treatment. […] After treatment, total cellular proteins were extracted from peritoneal macrophages for determination of ABCA1 and ABCG1 by western blot, as previously described. Expression of CD68, SM22α, iNOS, CD206, TNF-α, IL-6, and IL-1β mRNA in HASMCs or macrophages was determined by quantitative real-time polymerase chain reaction (qRT-PCR) with total RNA extracted from cells and the primers listed in Table 1 and normalized to GAPDH mRNA levels in the corresponding samples.

[3] = tested on: atherosclerotic lesions in apoE-/- mice; assay: Atherosclerotic lesion formation, Oil Red O staining; type: in vivo, mouse; conditions: high-fat diet 16 weeks, s.c. 100 μL of 1 μM weekly, n=15
Method: Male apoE^‑/‑ mice (~22 g bodyweight, ~8 weeks old) were purchased from the Beijing Vital River Laboratory Animal Technology Co., Ltd, which were used to set up the atherosclerotic model, as previously described[66]. ApoE^-/- mice were randomly assigned into six groups (15 per group) and fed with HFD (21% fat plus 0.5% cholesterol; Mediscience, Ltd, Jiangsu, China; Cat No. MD12015A) for 16 weeks. ApoE^-/- mice in the different groups were subcutaneously injected with either saline (100 µL, n=15), IGF-1 protein (1 μM, 100 μL, n=15), H1 (1 μM, 100 μL, n=15), H2 (1 μM, 100 μL, n=15), H3 (1 μM, 100 μL, n=15) or H4 (1 μM, 100 μL, n=15) weekly. At the end of the experiment, all mice were euthanatized by an overdose of 2,2,2-tribromoethanol (640 mg/kg, IP injection), followed by collection of aortas, blood, and peritoneal macrophages. […] The en face aortas were used to prepare aortic root cross sections followed by determination of en face and sinus lesions with Oil Red O staining. All the images were obtained with a microscope and quantified lesion areas in en face aorta by a computer-assisted image analysis protocol (Photoshop CS6).

peritoneal macrophage = assay: Cholesterol efflux of peritoneal macrophage; type: cell-based, mouse; conditions: n=5, Figures S14 and S15B
Method: page 8: Figure S14. Cholesterol efflux of peritoneal macrophage were assessed after treatment as indicated, n=5. […] Figure S15. Effects of Npx and IGF-1 mimetic peptide on inflammation and cholesterol efflux. (A) qRT-PCR analysis of TNFα and IL-1β in macrophage after indicated treatment, n=5. (B) Cholesterol efflux of peritoneal macrophage were assessed after treatment as indicated, n=5. […]

[4] = tested on: peritoneal macrophages from apoE-/- mice; assay: Foam cell formation, Oil Red O staining after ox-LDL; type: cell-based, mouse; conditions: same molar concentration, after exposure to ox-LDL, >10 lipid droplets per cell, n=5
Method: Human aortic smooth muscle cells (HASMCs) were cultured in a completed DMEM F12 medium (10% fetal bovine serum, 50 μg/mL penicillin, and 50 μg/mL streptomycin). Peritoneal macrophages were cultured in complete RPMI1640 medium (10% fetal bovine serum, 50 μg/mL penicillin, 50 μg/mL streptomycin and 2 mM glutamine). HASMCs or peritoneal macrophages were seeded on a 6-well plate at the density of 3×10^5 cells per well before treatment. […] To assess foam cell formation in vitro, peritoneal macrophages collected from apoE^-/- mice were plated on cover slips in 12-well plates. Subsequently, induction and determination of foam cells was conducted as previously described.

[5] = tested on: ABCA1 and ABCG1 in peritoneal macrophages; assay: ABCA1 and ABCG1 expression by western blot; type: cell-based, mouse; conditions: 10 nM overnight, versus GAPDH, n=5
Method: as §3

apoE-/- mice = assay: Inflammation and macrophage phenotype in vivo (aortic root immunofluorescence, serum ELISA, aorta qRT-PCR); parameters: species or system mouse
Excerpt: as §1

HASMCs = assay: VSMC switch to macrophage-like phenotype (αSMA immunofluorescence, CD68 and SM22α qRT-PCR); type: cell-based, human; conditions: n=5
Method: as §3

receptor of IGF-1 = conditions: earlier report of the same authors; cited from earlier work
Excerpt: Natural and recombinant human IGF-1 proteins (rhIGF-1) are limited in short half-lifes in biological systems and poor tissue retention. […] The C domain of […] in IGF-1 regulates its receptor binding and directly affects the biological activity of IGF-1. Nishida et al. reported that the C-domain of IGF-1 can promote the healing of corneal epithelial wounds. They screened a series of 12-amino acids of GST fusion protein and obtained mutants whose various ...

[6] = Transparency of hydrogels by UV-Vis spectroscopy; type: physicochemical; conditions: visible light range 380 nm-780 nm, hydrogel in PBS pH 7.4, 0.5 wt%
Excerpt: as §2

[7] = TEM of nanofibers in hydrogels; type: physicochemical; conditions: hydrogel in PBS, 0.5 wt%
[8] = Rheometer mechanical properties of hydrogels; type: physicochemical; conditions: hydrogel 1.0 wt%
Method: We then used a rheometer to characterize the mechanical properties of the hydrogels. […] The storage modulus (G') of the four hydrogels was approximately an order of magnitude higher than their loss modulus (G''), which indicated the formation of true gels. ApoE^-/- mice were then subcutaneously (s.c.) injected with 100 μL of the different hydrogels or natural IGF-1 protein solution per week and simultaneously fed a high-fat diet for 16 weeks. Atherosclerotic lesion formation was assessed after 16 weeks.

[9] = male apoE-/- mice, HFD 16 weeks, s.c. weekly, mean ± SD, n=15
[10] = double immunofluorescence staining with MOMA2, n=15
[11] = peritoneal macrophages, LPS 100 ng·mL^-1 2 h then 10 nM overnight, immunofluorescent staining, versus control, n=5
[12] = 10 nM with ox-LDL 50 µg·mL^-1 overnight, qRT-PCR, versus ox-LDL-treated cells

Chain of recombinant human Insulin-like Growth Factor-I Receptor (rhIGF-1R) (P08069 31-1367): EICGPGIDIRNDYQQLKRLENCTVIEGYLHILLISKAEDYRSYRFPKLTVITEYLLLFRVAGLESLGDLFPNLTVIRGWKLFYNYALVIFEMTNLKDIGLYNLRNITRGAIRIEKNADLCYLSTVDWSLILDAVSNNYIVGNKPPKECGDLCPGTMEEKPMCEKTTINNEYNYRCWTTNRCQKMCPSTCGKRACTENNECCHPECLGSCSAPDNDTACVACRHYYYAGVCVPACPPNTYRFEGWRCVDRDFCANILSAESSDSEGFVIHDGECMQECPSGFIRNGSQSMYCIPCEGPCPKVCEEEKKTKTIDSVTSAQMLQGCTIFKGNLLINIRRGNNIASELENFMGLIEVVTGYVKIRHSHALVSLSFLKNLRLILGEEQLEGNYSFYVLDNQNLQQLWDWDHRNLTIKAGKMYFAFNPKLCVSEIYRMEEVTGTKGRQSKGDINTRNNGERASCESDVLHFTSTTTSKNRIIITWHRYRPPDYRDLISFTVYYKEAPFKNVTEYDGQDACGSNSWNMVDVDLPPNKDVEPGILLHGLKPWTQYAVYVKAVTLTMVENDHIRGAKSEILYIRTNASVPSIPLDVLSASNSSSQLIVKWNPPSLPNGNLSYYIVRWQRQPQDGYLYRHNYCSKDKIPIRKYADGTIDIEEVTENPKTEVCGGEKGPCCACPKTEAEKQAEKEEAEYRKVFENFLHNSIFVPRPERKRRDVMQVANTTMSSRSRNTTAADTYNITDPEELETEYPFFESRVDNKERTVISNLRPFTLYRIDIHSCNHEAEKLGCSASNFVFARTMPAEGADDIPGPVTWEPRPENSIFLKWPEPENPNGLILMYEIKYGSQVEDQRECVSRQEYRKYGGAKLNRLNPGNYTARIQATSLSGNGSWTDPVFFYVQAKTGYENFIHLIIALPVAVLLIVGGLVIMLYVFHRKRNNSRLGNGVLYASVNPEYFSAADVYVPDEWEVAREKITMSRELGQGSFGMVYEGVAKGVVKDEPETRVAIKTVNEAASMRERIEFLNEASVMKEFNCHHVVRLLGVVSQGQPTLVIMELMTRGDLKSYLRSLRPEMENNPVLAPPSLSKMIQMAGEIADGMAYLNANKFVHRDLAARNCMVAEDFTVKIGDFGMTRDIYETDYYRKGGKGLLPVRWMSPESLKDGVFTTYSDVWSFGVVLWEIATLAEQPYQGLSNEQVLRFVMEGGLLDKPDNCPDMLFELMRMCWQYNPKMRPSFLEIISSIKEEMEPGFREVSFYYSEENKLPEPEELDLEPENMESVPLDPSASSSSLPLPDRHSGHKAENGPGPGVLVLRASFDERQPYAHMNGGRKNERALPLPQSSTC

## COc1ccc2cc([C@H](C)C(=O)N[C@H](Cc3ccccc3)C(=O)N[C@H](Cc3ccccc3)C(=O)NCC(=O)N[C@@H](CO)C(=O)N[C@@H](CO)C(=O)N[C@@H](CO)C(=O)N[C@@H](CCCNC(=N)N)C(=O)O)ccc2c1 [Compound H1, Npx-^DF^DFGSSSR] (Naproxen-[dF][dF]GSSSR-OH)
[1]; mouse, in vivo, sc, SD
  BW: 26.49 ± 2.14 g

## COc1ccc2cc([C@H](C)C(=O)N[C@@H](Cc3ccccc3)C(=O)N[C@@H](Cc3ccccc3)C(=O)NCC(=O)N[C@@H](CO)C(=O)N[C@@H](CO)C(=O)N[C@@H](CO)C(=O)N[C@@H](CCCNC(=N)N)C(=O)O)ccc2c1 [Compound H2, Npx-FFGSSSR] (Naproxen-FFGSSSR-OH)
[1]; mouse, in vivo, sc, SD
  BW: 25.55 ± 2.31 g

## N=C(N)NCCC[C@H](NC(=O)[C@H](CO)NC(=O)[C@H](CO)NC(=O)[C@H](CO)NC(=O)CNC(=O)[C@H](Cc1ccccc1)NC(=O)[C@H](Cc1ccccc1)NC(=O)Cc1ccc2ccccc2c1)C(=O)O [Compound H3, Nap-FFGSSSR] ({Acetyl(2-naphthyl)}-FFGSSSR-OH)
[2]
  Kd: 230 nM
[1]; [9]
  BW: 26.79 ± 1.77 g

## COc1ccc2cc([C@H](C)C(=O)O)ccc2c1 [Npx, naproxen, reference compound]
Peritoneal macrophages; macrophage in presence of LPS, qRT-PCR of TNF and IL-1, n=5
  LPS-induced inflammation, components compared (Figure S15A): partly blocked LPS-induced inflammation

## Insulin-like growth factor (IGF)-1 [IGF-1]
[3]
  decrease in plaque size at the aortic root: ~ 53%
  reduction in lesion area, en face aorta: ~ 42%
Peritoneal macrophage
  cholesterol efflux from peritoneal macrophage: more effective than Npx
[4]
  number of foam cells: 22.0%
[5]
  expression of ABCA1 and ABCG1 in macrophages: significantly enhanced expression
apoE-/- mice; [10]
  Arg1 expression in aortic root macrophages in vivo: induced the expression of Arg1
  CCR7 expression in aortic root macrophages in vivo: inhibited the expression of CCR7
apoE-/- mice; qRT-PCR of TNF-α and IL-6, n=8
  expression of proinflammatory cytokines in aortas: reduced the expression of these cytokines
Peritoneal macrophages; [11]
  Arg1 expression in macrophages in vitro: more Arg1
  CCR7 expression in macrophages in vitro: expressed less CCR7
[1]; [9]
  HDL-C: 2.35 ± 0.89 mM
  LDL-C: 4.08 ± 1.42 mM
  TG (triglyceride): 0.51 ± 0.13 mM
  Total-C (serum total cholesterol): 15.47 ± 2.76 mM
[1]; mouse, in vivo, sc, SD
  BW: 25.04 ± 1.83 g
HASMCs; 10 nM overnight, immunofluorescent staining, versus control
  α-SMA expression in VSMCs: expressed more α-SMA
HASMCs; [12]
  CD68 expression in VSMCs: less CD68
  SM22α expression in VSMCs: more SM22α

## Nap-FFGGYGSSSRRAPQT [self-assembling peptide reported earlier by the authors]
Receptor of IGF-1
  binding affinity to the receptor of IGF-1: high binding affinity

## Nap-FFGSRSS [Compound H4, control without naproxen and with a scrambled tetrapeptide of SSSR]
[4]
  number of foam cells: almost no decrease
[6]
  transparency (mean transmittance) of hydrogel: 71.08%
[7]
  diameter of entangled nanofibers: ~17.3 nm
[2]
  dissociated constant (KD) with rhIGF-1R: Non KD
[2]; listed as Compound 4
  dissociated constant (KD) with rhIGF-1R: no binding at all
[1]; [9]
  HDL-C: 2.34 ± 0.76 mM
  LDL-C: 4.45 ± 1.23 mM
  TG (triglyceride): 0.52 ± 0.08 mM
  Total-C (serum total cholesterol): 16.63 ± 2.05 mM
[1]; mouse, in vivo, sc, SD
  BW: 26.81 ± 2.06 g
[8]
  storage modulus (G'): 100 Pa
